According to patent publication US20210346359A1, “Use of CFTR Modulators For Treating Cerebrovascular Conditions” (Qanatpharma AG, priority 2018, published 2021):
“Also recorded” adds a separate entry of the source.

Assays:
[1] = system: mice with subarachnoid hemorrhage; assay: MRI (FAIR) cerebral blood flow in subarachnoid hemorrhage mice; format: in vivo, mouse; conditions: SAH mice, 3 mg/kg daily for 2 days
Excerpt: As described previously (10-12), we utilized a flow-sensitive alternating inversion recovery (FAIR) magnetic resonance imaging (MRI) technique (13) to evaluate cerebral blood flow (CBF). During imaging, mice were immobilized with 1.8% isoflurane delivered through a nose cone. To maintain body temperature, the MRI is equipped with embedded tubes that convect water from an external heater-pump. Respiration was monitored using a pneumatic pillow (SA Instruments, Stonybrook, USA); isoflurane levels were adjusted to maintain respiration at approximately 50 breaths/minute.
FAIR images were obtained using a 7 Tesla micro-MRI system (BioSpec 70/30 USR, Bruker BioSpin, Ettlingen, Germany), including the B-GA12 gradient insert, 72 mm inner diameter linear volume resonator for RF transmission, and anteriorly placed head coil for RF reception. […] FAIR images were evaluated by manual prescription (MIPAV, NIH, Bethesda, MD; http://mipav.cit.nih.gov) of sub-hemispheric regions-of-interest (ROIs), termed ‘global’, and local ROIs corresponding to cortical and sub-cortical parenchyma in forebrain sections; cortical and paraventricular parenchyma in middle sections; and cortical and midbrain parenchyma in hindbrain sections. […]

[2] = system: olfactory cerebral arteries; assay: Phenylephrine responses of isolated olfactory cerebral arteries; format: in vivo, mouse; conditions: for phenylephrine dose-response relationship, SAH vs SAH+treatment: not normalized; for log EC50 of phenylephrine response: olfactory cerebral arteries, SAH+treatment group, log scale
Experimental: Isolation and functional assessment of resistance arteries: Mouse olfactory (a first branch of the anterior cerebral artery) and PCAs were carefully dissected, cannulated onto micropipettes, stretched to their in vivo lengths and pressurized to 45 mmHg, as previously described (3,6); mouse skeletal muscle resistance arteries were dissected from the cremaster muscle, cannulated and pressurized to 60 mmHg. All functional experiments were conducted in 3-morpholinopropanesulfonic acid (MOPS) buffered saline at 37° C. with no perfusion. Vasomotor responses to phenylephrine (5 μmol/L for posterior cerebral arteries, 10 μmol/L for cremaster skeletal muscle arteries) provided an assessment of vessel viability at the beginning and end of each experiment. Arteries failing to show ≥25% constriction to phenylephrine were excluded.
Myogenic tone was calculated as the percent constriction in relation to the maximal diameter at each respective transmural pressure: tone (% of diamax)=[(diamax−diaactive)/diamax]×100, where diaactive is the vessel diameter in MOPS containing Ca^2+ and diamax is the diameter in Ca^2+-free MOPS. Analyses of vasomotor responses to phenylephrine used the same calculation, only in this case, diaactive represents the vessel diameter at steady state following application of the given agent and diamax represents the maximal diameter measured under Ca^2+-free conditions.

[3] = olfactory cerebral arteries from SAH mice, 3 mg/kg i.p. daily for 2 days, 3 mg/kg

Row | Structure (SMILES) | cerebral blood flow / cerebral perfusion [1] | phenylephrine dose-response relationship ([2]; olfactory cerebral arteries from CFTR knockout mice, 3 mg/kg i.p. daily for 2 days, 3 mg/kg) | phenylephrine dose-response relationship normalized to basal tone, SAH vs SAH+C18 [2, 3] | phenylephrine dose-response relationship, SAH vs SAH+treatment [2, 3] | phenylephrine dose-response relationship ([2]; olfactory cerebral arteries from sham-operated mice, 3 mg/kg i.p. daily for 2 days, 3 mg/kg) | log EC50 of phenylephrine response [2]
1 | O=C(Nc1ncc(C(c2ccccc2Cl)N2CCC(O)C2)s1)C1(c2ccc3c(c2)OCO3)CC1 (stereo not drawn) [C18, 1-(benzo[d][1,3]dioxol-5-yl)-N-(5-((2-chlorophenyl)(3-hydroxypyrrolidin-1-yl)methyl)thiazol-2-yl)cyclopropanecarboxamide] | restores; also recorded: significantly improves | not affected; also recorded: does not alter | curves overlap; also recorded: minimal | expected baseline shift; also recorded: not statistically different | does not affect; also recorded: does not alter | −6.61±0.31
2 | Cc1ccc(NC(=O)C2(c3ccc4c(c3)OC(F)(F)O4)CC2)nc1-c1cccc(C(=O)O)c1 [lumacaftor] | normalizes; also recorded: significantly improves | – | – | does not affect; also recorded: does not alter | – | −5.90±0.18
